From BindingDB's records for doi:10.1021/jm9606608 (Boehringer Ingelheim (Canada), 1997)

How the values were obtained:
[1] = target: T1, Dimer of Gag-Pol polyprotein [514-612] (Human immunodeficiency virus 2, UniProt P04584); assay: Protease Inhibition Assay; conditions: pH 5.5; 37 °C
T1 construct: 514-612
T1 sequence (P04584 whole entry): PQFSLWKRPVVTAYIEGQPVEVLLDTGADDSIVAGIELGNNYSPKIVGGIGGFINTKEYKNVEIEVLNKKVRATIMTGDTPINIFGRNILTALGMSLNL
Protocol: (§1) Sensitivity of HIV-1 protease activity to protease inhibitors was determined by a peptide substrate cleavage assay. Cleavage products and substrate were separated by reversed-phase HPLC on a Perkin-Elmer 3 X 3CR C8 column.

[2] = target: T2, Dimer of Gag-Pol polyprotein [489-587] (Human immunodeficiency virus 1, UniProt P12497); assay: Protease Inhibition Assay; conditions: pH 5.5; 37 °C
T2 construct: 489-587
Protocol: as §1

SMILES	IC50 [1] [nM]	IC50 [2] [nM]
CCC(CC)NC(=O)C[C@@H](C(=O)NC[C@@H](O)[C@H](Cc1ccccc1)NC(=O)[C@@H](NC(=O)c1ccc2ccccc2n1)C(C)C)C(C)(C)C [(2R)-2-tert-butyl-N-[(2R,3S)-2-hydroxy-3-[(2S)-3-methyl-2-(quinolin-2-ylformamido)butanamido]-4-phenylbutyl]-N'-(pentan-3-yl)butanediamide]	42	–
CCC(CC)NC(=O)C[C@@H](C(=O)NC[C@@H](O)[C@H](Cc1ccccc1)NC(=O)[C@@H](NC(=O)c1cnc2ccccc2n1)C(C)C)C(C)(C)C [(2R)-2-tert-butyl-N-[(2R,3S)-2-hydroxy-3-[(2S)-3-methyl-2-(quinoxalin-2-ylformamido)butanamido]-4-phenylbutyl]-N'-(pentan-3-yl)butanediamide]	38	–
CCC(CC)NC(=O)C[C@@H](C(=O)NC[C@@H](O)[C@H](Cc1ccccc1)NC(=O)[C@@H](NC(=O)c1ccc2ccccc2n1)C(C)O)C(C)(C)C (stereo partly drawn) [(2R)-2-tert-butyl-N-[(2R,3S)-2-hydroxy-3-[(2S,3R)-3-hydroxy-2-(quinolin-2-ylformamido)butanamido]-4-phenylbutyl]-N'-(pentan-3-yl)butanediamide]	–	3.6
CCC(CC)NC(=O)C[C@@H](C(=O)NC[C@@H](O)[C@H](Cc1ccccc1)NC(=O)[C@@H](NC(=O)c1cnc2ccccc2n1)C(C)O)C(C)(C)C (stereo partly drawn) [(2R)-2-tert-butyl-N-[(2R,3S)-2-hydroxy-3-[(2S,3R)-3-hydroxy-2-(quinoxalin-2-ylformamido)butanamido]-4-phenylbutyl]-N'-(pentan-3-yl)butanediamide]	135	3
CCC(CC)NC(=O)C[C@@H](C(=O)NC[C@@H](O)[C@H](Cc1ccccc1)NC(=O)[C@H](CC(N)=O)NC(=O)c1ccc2ccccc2n1)C(C)(C)C [(2S)-N-[(2S,3R)-4-[(2R)-2-tert-butyl-N-(pentan-3-yl)butanediamido]-3-hydroxy-1-phenylbutan-2-yl]-2-(quinolin-2-ylformamido)butanediamide]	6.7	–
CCC(CC)NC(=O)C[C@@H](C(=O)NC[C@@H](O)[C@H](Cc1ccccc1)NC(=O)[C@H](CC(N)=O)NC(=O)c1cnc2ccccc2n1)C(C)(C)C [(2S)-N-[(2S,3R)-4-[(2R)-2-tert-butyl-N-(pentan-3-yl)butanediamido]-3-hydroxy-1-phenylbutan-2-yl]-2-(quinoxalin-2-ylformamido)butanediamide]	6.3	–
CC(C)[C@H](NC(=O)OCc1ccccc1)C(=O)N[C@@H](Cc1ccccc1)[C@H](O)CNC(=O)C1CCCCC1C(=O)NC(C)(C)C (stereo partly drawn) [benzyl N-[(1S)-1-{[(2S,3R)-4-{[2-(tert-butylcarbamoyl)cyclohexyl]formamido}-3-hydroxy-1-phenylbutan-2-yl]carbamoyl}-2-methylpropyl]carbamate]	–	140
CCC(CC)NC(=O)C[C@@H](C(=O)NC[C@@H](O)[C@H](Cc1ccccc1)NC(=O)[C@@H](NC(=O)OCc1ccccc1)C(C)O)C(C)(C)C (stereo partly drawn) [benzyl N-[(1S,2S)-1-{[(2S,3R)-4-[(2R)-2-tert-butyl-N-(pentan-3-yl)butanediamido]-3-hydroxy-1-phenylbutan-2-yl]carbamoyl}-2-hydroxypropyl]carbamate]	–	8.2
